The subject of data set [1] is VEGF receptor-2 and angiogenesis cellular signaling pathways. The note with it: 25 µM; cited from earlier work.
For data set [2], the system named is MCF7 (human breast adenocarcinoma). As to the kind of experiment: MTT cytotoxicity assay on MCF-7. Type of data set: cell-based. The note with it: MCF7, 24 h, mean ± SD, read-out: Cytotoxic activity IC50, MCF-7. As to the method: (§1) Cancer cell lines, including PC3 NCBI-C427 (human prostate adenocarcinoma), HeLa NCBI-C115 (human cervix carcinoma), MCF7 NCBI-C135 (human breast adenocarcinoma), and a normal cell line, human umbilical vein endothelial cell (HUVEC) NCBI-C554, were purchased from the Pasteur Institute of Tehran, Iran. Cells were cultured and maintained in Dulbecco’s modified Eagle’s medium (DMEM) supplemented with 10% fetal bovine serum (FBS) and 2% (v/v) streptomycin-penicillin in a humidified incubator with a 5% CO2 atmosphere at 37°C. Passages 2 to 3 of the cells were utilized for the cytotoxicity assay ([18]).
(§2) The MTT assay was used to determine the cytotoxic activities of the MeOH extract, isolated compounds (1 - 3), and doxorubicin (as a positive control) on human cancer cell lines. For the MTT assay, concentrations (1, 5, 10, 25, 50, 100 µg) of the samples were prepared in DMEM as diluent and incubated with cells (10^5 cells/mL) for 24 hours in 96-well plates. Then, the MTT powder was added to the wells and incubated for 4 hours at 37°C. Absorbance was measured at 570 nm using a microplate reader. The experiment was performed in triplicate, and cell viability percentages were calculated by the following equation: […]. The negative control was untreated cells. The cytotoxicity IC50 value for the extracts was defined as the concentration that reduces 50% cell viability ([19]).

The test system of data set [3] is HeLa (human cervix carcinoma). As to the kind of experiment: MTT cytotoxicity assay on HeLa. Type of data set: cell-based. The note with it: 24 hours, mean ± SD, read-out: Cytotoxic activity IC50, HeLa. As for the experimental part:
as §1, §2

Data set [4] concerns PC3 (human prostate adenocarcinoma). Kind of data set: MTT cytotoxicity assay on PC3. The format is cell-based. The note with it: 24 h, mean ± SD, read-out: Cytotoxic activity IC50, PC3. As for the experimental part:
as §1, §2

A short description of data set [5]: MTT cytotoxicity assay on HUVEC (normal cell line). The format is cell-based. The note with it: human, HUVEC (umbilical vein endothelial cells), mean ± SD, read-out: Cytotoxic activity IC50, HUVEC. As to the method:
as §1, §2

Another data set has as its system mice VEGF serum levels. Also on record: method as in PMID 23867787. The note with it: 20 mg/kg; by reducing mice VEGF serum levels; cited from earlier work.
The subject of data set [6] is chicken chorioallantoic membrane (CAM). Kind of data set: Chick chorioallantoic membrane (CAM) anti-angiogenesis assay. Type of data set: in vivo. The note with it: Gallus gallus, read-out: Anti-angiogenesis IC50 (50% inhibition of angiogenesis). As for the experimental part:
The anti-angiogenesis activities of the MeOH extract and isolated compounds ([1]-[3]) were evaluated using the chicken chorioallantoic membrane (CAM) model. Briefly, pathogen-free fertilized chicken eggs were purchased from Baharan Parent Stock Company, Kermanshah, Iran, and incubated at 37°C with 75% humidity for 7 days. Then, square windows (1 cm^2) were opened in the outer shell of the eggs, and different concentrations of samples were loaded. After 48 hours, the zones around the discs were photographed with a digital camera and macroscopically assayed for neovascular zones of CAM in each treatment group. The effects on local vessel density within a 10 cm^2 area surrounding the windows were measured in each treatment group using AngioSoft software (V, 2019) ([12], [13]). The study was done in triplicate for each experimental group (8 eggs). The anti-angiogenesis IC50 value for the extracts was reported as the concentration that reduces 50% angiogenesis compared to the blank disk.
The results of the anti-angiogenesis activities of isolated flavonoids (1 - 3) and the MeOH extract of A. colchicifolium bulbs on the CAM model of angiogenesis are shown in Figure 2A and B. The IC50 of each compound was considered as the concentration that caused 50% inhibition of angiogenesis in a 100 mm^2 area surrounding each sample disc compared to the negative control disc (distilled water).

In the next data set the test system is CAM model. The note with it: 10 nM; by blocking matrix metalloproteinase-2 gene expression; cited from earlier work.
[7] abbreviates: CAM model, 48 hours, compared to negative control disc.

In brackets after ≈: the same amount, converted by molar mass. Where two headings read alike, the source gives them in different places.

Regarding `COc1ccc(-c2oc3c(C)c(OC)cc(OC)c3c(=O)c2OC)cc1OC` [8-methylquercetin-3,5,7,3',4'-pentamethyl ether, reference compound], the Anti-angiogenesis activities result in data set [1] is given as “demonstrated anti-angiogenesis activities”.

Take `C[C@@H]1O[C@@H](OC[C@H]2O[C@@H](Oc3c(-c4ccc(O)c(O)c4)oc4cc(O)cc(O)c4c3=O)[C@H](O)[C@@H](O)[C@@H]2O)[C@H](O)[C@H](O)[C@H]1O` [Compound 1, quercetin 3-O-rutinoside]: the concentration for half-maximal inhibition (IC50) in data set [2] worked out at 3.16 ± 0.3 µg/mL (≈ 5.18 µM); in data set [3] it was 6.95 ± 0.32 µg/mL (≈ 11.4 µM); in data set [4] it was 2.96 ± 0.16 µg/mL (≈ 4.85 µM); in data set [6] (setting [7]), 7.12 ± 0.1 µg/mL (≈ 11.7 µM). Further, in data set [5], the IC50 at 24 h was 9.35 ± 0.8 µg/mL (≈ 15.3 µM). For the same compound, in the data set with mice VEGF serum levels, the Inhibition of angiogenesis result is recorded as “inhibited angiogenesis”.

As for `COc1cc(-c2oc3cc(O)cc(O)c3c(=O)c2O[C@@H]2O[C@H](CO)[C@@H](O)[C@H](O)[C@H]2O)ccc1O` [Compound 2, isorhamnetin 3-O-glucoside], the IC50 in data set [2] was found to be 2.58 ± 0.21 µg/mL (≈ 5.39 µM); in data set [3] it was 8.43 ± 0.32 µg/mL (≈ 17.6 µM); in data set [4] it was 1.72 ± 0.02 µg/mL (≈ 3.6 µM); in data set [6] (setting [7]), 6 ± 0.21 µg/mL (≈ 12.5 µM). Also, the IC50 at 24 h in data set [5] came to 9.96 ± 0.37 µg/mL (≈ 20.8 µM).

For the compound `O=c1c(O)c(-c2ccc(O)c(O)c2)oc2cc(O)cc(O)c12` [Compound 3, quercetin], the “Anti-angiogenesis on the CAM model” value in the data set with CAM model was “exhibited anti-angiogenesis”. Moreover, the 50% inhibitory concentration (IC50) in data set [2] was at most 3 µg/mL; in data set [3], 6.17 ± 0.13 µg/mL (≈ 20.4 µM); in data set [4] it was at most 3 µg/mL; in data set [6] (48 h), 5.3 ± 0.3 µg/mL (≈ 17.5 µM). In addition, the Anti-angiogenesis activities result in data set [1] was “demonstrated anti-angiogenesis activities”. Also, in data set [5], the IC50 at 24 h came to 7.23 ± 0.29 µg/mL (≈ 23.9 µM).

Consider `COc1cccc2c1C(=O)c1c(O)c3c(c(O)c1C2=O)C[C@@](O)(C(=O)CO)C[C@@H]3O[C@H]1C[C@H](N)[C@H](O)[C@H](C)O1` [Doxorubicin, doxorubicin, reference compound], for which the IC50 in data set [2] was found to be 0.034 ± 0.01 µg/mL (≈ 0.0626 µM); in data set [3], 0.066 ± 0.007 µg/mL (≈ 0.121 µM); in data set [4] it was 0.051 ± 0.004 µg/mL (≈ 0.0938 µM). Also, the concentration for half-maximal inhibition (IC50) at 24 h in data set [5] was 0.045 ± 0.006 µg/mL (≈ 0.0828 µM).

Source of the values: article PMC12523642, “Unveiling the Bioactive Potential of Allium colchicifolium Boiss Bulb Flavonoids: Anti-cancer Activities, and Computational Exploration of Anti-angiogenic Mechanisms” (Iranian Journal of Pharmaceutical Research : IJPR, 2025).
